Test system: patients with MDD and an inadequate response to an SSRI or SNRI
Experiment: Massachusetts General Hospital Sexual Functioning Index (MGH-SFI), Study ACP-103-042
Format: in vivo, human
Design: key to MGH-SFI Ability to Get Sexually Aroused or Excited, treatment effect size / MGH-SFI Ability to Achieve Orgasm, treatment effect size / MGH-SFI Overall Sexual Satisfaction, treatment effect size: Cohen's d = LS mean difference (PIM vs PBO) / SD
Text: “Massachusetts General Hospital Sexual Functioning Index (MGH-SFI)” is described, for instance, in Labbate and Lare, 2001, Psychother Psychosom. 70(4):221-225. This is a patient facing questionnaire that quantifies sexual dysfunction into 5 functional domains (“interest in sex,” “sexual arousal,” “ability to achieve orgasm,” “ability to maintain erection” (males only), and “sexual satisfaction”). Patients rate each item using a 6-point scale ranging from 1 (good function) to 6 (poor function). High scores indicate poor sexual functioning. […] The determination of the subject's status and eligibility for randomization in Stage 2 was made in a double-blind manner. […] Sexual functioning was assessed using the Massachusetts General Hospital Sexual Functioning Index or MGH-SFI (Labbate and Lare, 2001, Psychother Psychosom. 70(4):221-225). This is a patient facing questionnaire that quantifies sexual dysfunction into 5 functional domains (“interest in sex,” “sexual arousal,” “ability to achieve orgasm,” “ability to maintain erection” [malesonly], and “sexual satisfaction”). Patients rate each item using a 6-point scale ranging from 1 (good function) to 6 (poor function). The time frame for this scale is the past month. This scale was administered at baseline and Week 5 in both stages of the study. High scores indicate poor sexual functioning. In ACP-103-042 the mean scores for MGH-SFI at Baseline was calculated over all 5 domains for males and the 4 domains for females. For MGH-SFI (follow-up version) at Study Weeks 5 and 10, the mean was calculated in the same way as MGH-SFI at Baseline. […] Tables 10-27 summarize the detailed data of MGH-SFI individual items of the overall study group (Tables 10-15), the subgroup of age of <=50 (Tables 16-21) and the subgroup of age of >50 (Table 21-26). In Tables 9-26, ANCOVA=analysis of covariance; OC=observed cases; LSM=least squares mean; CI=confidence interval; SD=standard deviation; SE=standard error. Stage 1: Baseline=Study Week 0, Week 5=Study Week 5; Stage 2: Baseline=Study Week 5, Week 5=Study Weeks 10. LSM from the stage-specific ANCOVA analysis with the change from baseline as the outcome, treatment group as a factor, and the corresponding Baseline value as a covariate. 2-sided p-value for treatment difference from the stage-specific ANCOVA analysis. An treatment effect size (Cohen's d) is calculated using the formula: Effect Size=Least Square mean difference between PIM and PBO/SD. The corresponding 95% confidence interval for an effect size is calculated based on the theoretical probability distribution of the effect size. […] Tables 10-15 and 28-38 summarize the detailed data of MGH-SFI individual items of the overall study group (Tables 10-15), the female subgroup (Tables 33-37) and the male subgroup (Table 38-43). An treatment effect size (Cohen's d) is calculated using the formula: Effect Size=Least Square mean difference between PIM and PBO/SD. The corresponding 95% confidence interval for an effect size is calculated based on the theoretical probability distribution of the effect size. In Tables 10-15 and 28-38, ANCOVA=analysis of covariance; OC=observed cases; LSM=least squares mean; CI=confidence interval; SD=standard deviation; SE=standard error. Stage 1: Baseline=Study Week 0, Week 5=Study Week 5; Stage 2: Baseline=Study Week 5, Week 5=Study Weeks 10. LSM from the stage-specific ANCOVA analysis with the change from baseline as the outcome, treatment group as a factor, and the corresponding Baseline value as a covariate. 2-sided p-value for treatment difference from the stage-specific ANCOVA analysis. An treatment effect size (Cohen's d) is calculated using the formula: Effect Size=Least Square mean difference between PIM and PBO/SD. The corresponding 95% confidence interval for an effect size is calculated based on the theoretical probability distribution of the effect size.

[1] = Stage 1, Overall Study Group, 34 mg QD + SSRI/SNRI
[2] = Stage 1, Subgroup of <=50 Years
[3] = Stage 1, Subgroup of <=50 Years Old
[4] = Stage 1, Subgroup of <=50 Years Old, 34 mg QD + SSRI/SNRI

In the case of CC(C)COc1ccc(CNC(=O)N(Cc2ccc(F)cc2)C2CCN(C)CC2)cc1 [pimavanserin, N-(4-Fluorophenylmethyl)-N-(1-methylpiperidin-4-yl)-N′-(4-(2-methylpropyloxy)phenylmethyl)carbamide], the “MGH-SFI Items mean change stratified by age >50 or ≤50 years vs placebo” value (Stage 1) is reported as “differences were only significant for the age >50 years subgroup”, the “MGH-SFI treatment effect size for pimavanserin compared to placebo” value (Stage 1) is reported as 0.614 and the “MGH-SFI 01: Interest in Sex, Change from Baseline to Week 5 Mean (SE)” value (from here on “MGH-SFI 01: Interest in Sex, Change … (SE)”) (Stage 1, Overall Study Group) is reported as −0.9 (0.23). The “MGH-SFI 01: Interest in Sex, Change from Baseline to Week 5 Median” value (Stage 1, Overall Study Group) was −1.0, the “MGH-SFI 01: Interest in Sex, Effect Size (Cohen's d)” value (“MGH-SFI 01: Interest … (Cohen's d)” for short) (Stage 1, Overall Study Group) was 0.483 and the “MGH-SFI 01: Interest in Sex, Week 5 Median” value (Stage 1, Overall Study Group) was 4.0. For the same compound, the “MGH-SFI 02: Ability to Get Sexually Aroused or Excited, Change from Baseline to Week 5 Mean (SE)” value (Stage 1, Overall Study Group) was −0.8 (0.17), the “MGH-SFI 02: Ability to Get Sexually Aroused or Excited, Change from Baseline to Week 5 Median” value (Stage 1, Overall Study Group) was −1.0 and the “MGH-SFI 02: Ability to Get Sexually Aroused or Excited, Effect Size (Cohen's d)” value (shortened to “MGH-SFI 02: Ability … (Cohen's d)”) (Stage 1, Overall Study Group) was 0.560. The “MGH-SFI 02: Ability to Get Sexually Aroused or Excited, Week 5 Median” value (Stage 1, Overall Study Group) was 4.0, the “MGH-SFI 03: Ability to Achieve Orgasm, Change from Baseline to Week 5 Mean (SE)” value (Stage 1, Overall Study Group) was −1.0 (0.24) and the “MGH-SFI 03: Ability to Achieve Orgasm, Change from Baseline to Week 5 Median” value (Stage 1, Overall Study Group) was 0.0. For the same compound, the “MGH-SFI 03: Ability to Achieve Orgasm, Effect Size (Cohen's d)” value (shortened to “MGH-SFI 03: Ability … (Cohen's d)”) (Stage 1, Overall Study Group) was 0.609, the “MGH-SFI 03: Ability to Achieve Orgasm, Week 5 Median” value (Stage 1, Overall Study Group) was 4.0 and the “MGH-SFI 04: (Men) Ability to Get and Maintain an Erection, Change from Baseline to Week 5 Mean (SE)” value (Stage 1, Overall Study Group) was −0.3 (0.78). For the same compound, the “MGH-SFI 04: (Men) Ability to Get and Maintain an Erection, Change from Baseline to Week 5 Median” value (Stage 1, Overall Study Group) was 0.0, the “MGH-SFI 04: (Men) Ability to Get and Maintain an Erection, Effect Size (Cohen's d)” value (Stage 1, Overall Study Group) was 0.105 and the “MGH-SFI 04: (Men) Ability to Get and Maintain an Erection, Week 5 Median” value (Stage 1, Overall Study Group) was 3.0. For the same compound, the “MGH-SFI 05: Overall Sexual Satisfaction, Change from Baseline to Week 5 Mean (SE)” value (Stage 1, Overall Study Group) was −0.8 (0.25), the “MGH-SFI 05: Overall Sexual Satisfaction, Change from Baseline to Week 5 Median” value (Stage 1, Overall Study Group) was 0.0 and the “MGH-SFI 05: Overall Sexual Satisfaction, Effect Size (Cohen's d)” value (Stage 1, Overall Study Group) was 0.524. For the same compound, the “MGH-SFI 05: Overall Sexual Satisfaction, Week 5 Median” value (Stage 1, Overall Study Group) was 4.0, the “MGH-SFI 06: Overall Improvement Since Last Medication Change, Effect Size (Cohen's d)” value (Stage 1, Overall Study Group) was 0.539 and the “MGH-SFI 06: Overall Improvement Since Last Medication Change, Week 5 Median” value (Stage 1, Overall Study Group) was 4.0. The “MGH-SFI 01: Interest in Sex, Week 5 Mean (SE)” value [1] was 3.8 (0.27), the “MGH-SFI 02: Ability to Get Sexually Aroused or Excited, Week 5 Mean (SE)” value [1] was 3.7 (0.26) and the “MGH-SFI 03: Ability to Achieve Orgasm, Week 5 Mean (SE)” value [1] was 3.8 (0.26). The “MGH-SFI 04: (Men) Ability to Get and Maintain an Erection, Week 5 Mean (SE)” value [1] was 3.9 (0.70), the “MGH-SFI 05: Overall Sexual Satisfaction, Week 5 Mean (SE)” value [1] was 3.9 (0.27) and the “MGH-SFI 06: Overall Improvement Since Last Medication Change, Week 5 Mean (SE)” value [1] was 3.2 (0.17). The “MGH-SFI 01: Interest in Sex, Change … (SE)” value [2] was −0.7 (0.45), the “MGH-SFI 01: Interest in Sex, Change from Baseline to Week 5 Median” value [2] was 0.0 and the “MGH-SFI 01: Interest … (Cohen's d)” value [2] was 0.347. The “MGH-SFI 01: Interest in Sex, Week 5 Median” value [2] was 3.0, the “MGH-SFI 02: Ability to Get Sexually Aroused or Excited, Change from Baseline to Week 5 Mean (SE)” value [3] was −0.5 (0.27) and the “MGH-SFI 02: Ability to Get Sexually Aroused or Excited, Change from Baseline to Week 5 Median” value [3] was 0.0. For the same compound, the “MGH-SFI 02: Ability … (Cohen's d)” value [3] was 0.447, the “MGH-SFI 02: Ability to Get Sexually Aroused or Excited, Week 5 Median” value [3] was 3.0 and the “MGH-SFI 03: Ability to Achieve Orgasm, Change from Baseline to Week 5 Mean (SE)” value [3] was −0.8 (0.36). For the same compound, the “MGH-SFI 03: Ability to Achieve Orgasm, Change from Baseline to Week 5 Median” value [3] was 0.0, the “MGH-SFI 03: Ability … (Cohen's d)” value [3] was 0.352 and the “MGH-SFI 03: Ability to Achieve Orgasm, Week 5 Median” value [3] was 4.0. For the same compound, the “MGH-SFI 02: Ability to Get Sexually Aroused or Excited, Week 5 Mean (SE)” value [4] was 3.4 (0.42), the “MGH-SFI 03: Ability to Achieve Orgasm, Week 5 Mean (SE)” value [4] was 3.8 (0.42) and the “MGH-SFI 01: Interest in Sex, Week 5 Mean (SE)” value (Stage 1, Subgroup of <=50 Years, 34 mg QD + SSRI/SNRI) was 3.5 (0.45). For the same compound, the “MGH-SFI Ability to Achieve Orgasm, treatment effect size” value (Stage 1, female subgroup) was 0.749, the “MGH-SFI Ability to Get Sexually Aroused or Excited, treatment effect size” value (Stage 1, female subgroup) was 0.616 and the “MGH-SFI Interest in Sex, treatment effect size” value (Stage 1, female subgroup) was 0.561. The “MGH-SFI Overall Improvement Since Last Medication Change, treatment effect size” value (Stage 1, female subgroup) was 0.634, the “MGH-SFI Overall Sexual Satisfaction, treatment effect size” value (Stage 1, female subgroup) was 0.627 and the “MGH-SFI effects vs placebo when assessed by MDD remission status” value (Stage 1, patients with or without remission) was “robust and significant effects”. The “MGH-SFI treatment effect size for pimavanserin compared to placebo” value (Stage 2) was 0.412, the “MGH-SFI 01: Interest in Sex, Change … (SE)” value (Stage 2, Overall Study Group) was −0.4 (0.16) and the “MGH-SFI 01: Interest in Sex, Change from Baseline to Week 5 Median” value (Stage 2, Overall Study Group) was 0.0. For the same compound, the “MGH-SFI 01: Interest … (Cohen's d)” value (Stage 2, Overall Study Group) was 0.227, the “MGH-SFI 01: Interest in Sex, Week 5 Median” value (Stage 2, Overall Study Group) was 4.0 and the “MGH-SFI 02: Ability to Get Sexually Aroused or Excited, Change from Baseline to Week 5 Mean (SE)” value (Stage 2, Overall Study Group) was −0.4 (0.16). The “MGH-SFI 02: Ability to Get Sexually Aroused or Excited, Change from Baseline to Week 5 Median” value (Stage 2, Overall Study Group) was 0.0, the “MGH-SFI 02: Ability … (Cohen's d)” value (Stage 2, Overall Study Group) was −0.025 and the “MGH-SFI 02: Ability to Get Sexually Aroused or Excited, Week 5 Median” value (Stage 2, Overall Study Group) was 4.5. The “MGH-SFI 03: Ability to Achieve Orgasm, Change from Baseline to Week 5 Mean (SE)” value (Stage 2, Overall Study Group) was −0.4 (0.18), the “MGH-SFI 03: Ability to Achieve Orgasm, Change from Baseline to Week 5 Median” value (Stage 2, Overall Study Group) was 0.0 and the “MGH-SFI 03: Ability … (Cohen's d)” value (Stage 2, Overall Study Group) was 0.300. For the same compound, the “MGH-SFI 03: Ability to Achieve Orgasm, Week 5 Median” value (Stage 2, Overall Study Group) was 5.0, the “MGH-SFI 04: (Men) Ability to Get and Maintain an Erection, Change from Baseline to Week 5 Mean (SE)” value (Stage 2, Overall Study Group) was −1.0 (0.41) and the “MGH-SFI 04: (Men) Ability to Get and Maintain an Erection, Change from Baseline to Week 5 Median” value (Stage 2, Overall Study Group) was −1.0. The “MGH-SFI 04: (Men) Ability to Get and Maintain an Erection, Effect Size (Cohen's d)” value (Stage 2, Overall Study Group) was 0.701, the “MGH-SFI 04: (Men) Ability to Get and Maintain an Erection, Week 5 Median” value (Stage 2, Overall Study Group) was 4.0 and the “MGH-SFI 05: Overall Sexual Satisfaction, Change from Baseline to Week 5 Mean (SE)” value (Stage 2, Overall Study Group) was −0.7 (0.25). For the same compound, the “MGH-SFI 05: Overall Sexual Satisfaction, Change from Baseline to Week 5 Median” value (Stage 2, Overall Study Group) was −0.5.

Source: patent US20220016101A1 (ACADIA Pharmaceuticals Inc., priority 2018, published 2022)
